Measurements published in patent publication US6583175B2, “Alkylxanthates and use of alkylxanthates in the integrated pest management” (Council of Scientific & Industrial Research, priority 2001, dated 2003).
In brackets after ≈: the same amount, converted by molar mass.

Tests used:
Spodoptera litura = assay: Antifeedant activity against late third instar of Spodoptera litura (leaf disk, oral feeding); type: in vivo; settings: in vivo
[1] = system: Brine shrimp, Artemia salina; settings: in vivo
lice = settings: in vivo; cited from earlier work

C/C=C(\C)C(=O)O[C@H]1C[C@@H](OC(C)=O)[C@@]2(C(=O)OC)CO[C@H]3[C@@H](O)[C@@](C)([C@]45O[C@@]4(C)[C@H]4C[C@@H]5O[C@@H]5OC=C[C@@]54O)[C@H]4[C@]1(CO[C@]4(O)C(=O)OC)[C@@H]32 [Azadiractin, reference compound]
Concentration required for 50% leaf protection EC50 ± S.E. (Spodoptera litura): 6.34 ± 1.77 μg/cm^2

CC[C@@]1(O)C(=O)OCc2c1cc1n(c2=O)Cc2cc3ccccc3nc2-1 [Chamtothecin, reference compound]
LC50 ± S.E. [1]: 2.53 ± 0.43 µg/mL (≈ 7.26 µM)

S=C(OCc1ccccc1)SCCSC(=S)OCc1ccccc1 [Compound 5, Ethylene Bis(benzylxanthate)]
insecticidal activity against lice (lice): moderate insecticidal activity
